Active and inactive are the calls of the source. The rule behind the calls is not given here.
What was measured:
HL-60 [1] = assay: Induction of apoptosis in human HL60 cells assessed as increase in MG level accumulation at 1 to 3 uM incubated for 8 to 24 hrs by HLPC analysis; assay type: functional, cell-based
HL-60 [2] = assay: Induction of apoptosis in human HL60 cells assessed as nuclear condensation/fragmentation at 5 uM incubated for 6 hrs by Hoechst 33342 staining-based fluorescence microscopic method; assay type: functional, cell-based
Lactoylglutathione lyase = Lactoylglutathione lyase (Homo sapiens, UniProt Q04760); assay: Inhibition of recombinant human Glyoxalase-1 expressed in Escherichia coli BL21 (DE3) assessed as inhibition of S-D-lactoylglutathione formation using MG and reduced glutathione as substrate measured for 2 mins by spectrophotometric method
Sequence of Lactoylglutathione lyase (Q04760 whole entry): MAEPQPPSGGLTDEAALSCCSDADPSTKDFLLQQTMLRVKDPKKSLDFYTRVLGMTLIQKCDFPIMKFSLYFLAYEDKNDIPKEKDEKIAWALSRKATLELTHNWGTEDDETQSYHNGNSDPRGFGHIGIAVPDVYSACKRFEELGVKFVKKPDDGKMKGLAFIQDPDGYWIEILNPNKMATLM

HL-60 [3] = assay: Antiproliferative activity against human HL60 cells assessed as inhibition of cell viability up to 50 uM incubated for 48 hrs by MTS assay; assay type: functional, cell-based
HL-60 [4] = assay: Induction of apoptosis in human HL60 cells assessed as caspase 9 activation at 0.1 to 0.5 uM incubated up to 24 hrs by flurometric analysis; assay type: functional, cell-based
HL-60 [5] = assay: Induction of apoptosis in human HL60 cells assessed as caspase 3 activation at 0.1 to 0.5 uM incubated up to 24 hrs by flurometric analysis; assay type: functional, cell-based
HL-60 [6] = assay: Induction of apoptosis in human HL60 cells assessed as DNA ladder formation at 1 to 3 uM incubated for 5 hrs by agarose gel electrophoresis method; assay type: functional, cell-based
HL-60 [7] = assay: Antiproliferative activity against human HL60 cells assessed as inhibition of cell viability incubated for 48 hrs by MTS assay; assay type: functional, cell-based; settings: for IC50: HL-60, 48 h
Homo sapiens = species on record: Homo sapiens; assay: Selectivity index, ratio of IC50 for recombinant human Glyoxalase-1 expressed in Escherichia coli BL21 (DE3) to IC50 for antiproliferative activity against human HL60 cells

| SMILES | Activity (HL-60 [1]) | Activity (HL-60 [2]) | IC50 (Lactoylglutathione lyase) [µM] | Activity (HL-60 [3]) | Activity (HL-60 [4]) | Activity (HL-60 [5]) | Activity (HL-60 [6]) | Activity (HL-60 [7]) | Ratio IC50 (Homo sapiens) | IC50 (HL-60 [7]) [µM] |
| --- | --- | --- | --- | --- | --- | --- | --- | --- | --- | --- |
| CC(C)(O)[C@H]1Cc2c(cc(O)c3c(=O)c(-c4ccc(O)cc4)coc23)O1 | inactive | inactive | 100 | inactive | inactive | inactive | inactive | inactive | – | – |
| CC(C)(O)C1Cc2c(cc(O)c3c(=O)c(-c4ccc(O)cc4)coc23)O1 (racemic) | – | – | 109 | – | – | – | – | – | 625 | 0.175 |
| CC(C)(O)[C@@H]1Cc2c(cc(O)c3c(=O)c(-c4ccc(O)cc4)coc23)O1 | – | Active | 100 | – | – | – | Active | – | – | 0.09 |

From ChEMBL document CHEMBL4622839, “Induction of enantio-selective apoptosis in human leukemia HL-60 cells by (S)-erypoegin K, an isoflavone isolated from Erythrina poeppigiana” (Bioorg Med Chem, 2020)
